Experiments:
human orexin-2 receptor = target: T1, human orexin-2 receptor (Homo sapiens, UniProt O43614); assay: Intracellular calcium measurement (FLIPR), antagonism of orexin-A response in CHO cells expressing OX2R; settings: for inhibition at 1 µM: CHO, read-out: % Inhibition of OX2R @1 uM compound
T1 sequence (O43614 1-444): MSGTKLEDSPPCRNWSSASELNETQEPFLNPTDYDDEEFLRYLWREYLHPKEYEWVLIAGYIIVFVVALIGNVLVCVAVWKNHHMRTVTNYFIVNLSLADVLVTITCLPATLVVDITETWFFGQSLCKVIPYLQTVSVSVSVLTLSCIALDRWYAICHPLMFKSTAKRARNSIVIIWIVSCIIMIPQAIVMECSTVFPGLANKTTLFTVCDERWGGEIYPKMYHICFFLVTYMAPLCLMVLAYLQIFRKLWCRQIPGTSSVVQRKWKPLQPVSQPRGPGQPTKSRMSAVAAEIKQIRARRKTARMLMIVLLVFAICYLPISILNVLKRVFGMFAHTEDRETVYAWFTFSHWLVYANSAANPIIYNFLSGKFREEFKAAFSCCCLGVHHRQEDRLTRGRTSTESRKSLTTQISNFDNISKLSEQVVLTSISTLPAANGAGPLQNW
Description: (§1) In Vitro Assay: Intracellular Calcium Measurements:
(§2) Chinese hamster ovary (CHO) cells expressing the human orexin-1 receptor and the human orexin-2 receptor, respectively, are grown in culture medium (Ham F-12 with L-Glutamine) containing 300 μg/mL G418, 100 U/mL penicillin, 100 μg/mL streptomycin and 10% heat inactivated fetal calf serum (FCS). The cells are seeded at 20,000 cells/well into 384-well black clear bottom sterile plates (Greiner). The seeded plates are incubated overnight at 37° C. in 5% CO2.
(§3) Within the Fluorescent Imaging Plate Reader (FLIPR Tetra, Molecular Devices), antagonists are added to the plate in a volume of 10 μL/well, incubated for 120 min and finally 10 μL/well of agonist is added. Fluorescence is measured for each well at 1 second intervals, and the height of each fluorescence peak is compared to the height of the fluorescence peak-induced by 3 nM orexin-A with vehicle in place of antagonist. […] Optimized conditions were achieved by adjustment of pipetting speed and cell splitting regime. The calculated IC50 values may fluctuate depending on the daily cellular assay performance.

human orexin-1 receptor = target: T2, human orexin-1 receptor (Homo sapiens, UniProt O43613); assay: Intracellular calcium measurement (FLIPR), antagonism of orexin-A response in CHO cells expressing OX1R; settings: for inhibition at 1 µM: CHO, read-out: % Inhibition of OX1R @1 uM compound
T2 sequence (O43613 1-425): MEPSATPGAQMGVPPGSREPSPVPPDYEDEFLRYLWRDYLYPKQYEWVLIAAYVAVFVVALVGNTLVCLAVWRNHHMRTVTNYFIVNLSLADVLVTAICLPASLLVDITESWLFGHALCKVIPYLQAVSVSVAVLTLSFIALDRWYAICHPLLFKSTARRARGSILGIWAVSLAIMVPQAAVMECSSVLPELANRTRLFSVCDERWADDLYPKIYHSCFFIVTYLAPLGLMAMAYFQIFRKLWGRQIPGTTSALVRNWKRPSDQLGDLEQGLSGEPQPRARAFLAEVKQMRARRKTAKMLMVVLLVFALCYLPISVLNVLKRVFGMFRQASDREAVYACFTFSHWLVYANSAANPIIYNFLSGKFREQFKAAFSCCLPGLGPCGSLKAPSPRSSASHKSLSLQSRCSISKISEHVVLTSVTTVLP
Description: as §1, §2, §3

OX1R = target: T3, OX1R (Homo sapiens, UniProt O43613); settings: relative to Orexin B; Kodadek and Cai 2010; cited from earlier work
T3 sequence (O43613 1-425): T2 sequence (O43613 1-425)

| Molecule | inhibition at 1 µM (human orexin-2 receptor) | IC50 (human orexin-1 receptor) | Kb (human orexin-1 receptor) | inhibition at 1 µM (human orexin-1 receptor) | IC50 (human orexin-2 receptor) | Kb (human orexin-2 receptor) | affinity for OX1R, higher than Orexin B (OX1R) |
| --- | --- | --- | --- | --- | --- | --- | --- |
| O=C(c1c(-c2ccccc2)nn2c1COCC2)N1CCC[C@H]1Cn1ccc(-c2ccccc2)n1 [Example 1] | 28.2% | 33 nM | 7 nM | 69.7% | – | – | – |
| O=C(c1c(-c2ccccc2)nn2c1COCC2)N1CCC[C@H]1CNc1ccc(C(F)(F)F)cn1 [Example 2] | 20.9% | 122 nM | 26 nM | 62.8% | – | – | – |
| CCc1cnc(NC[C@@H]2CCCN2C(=O)c2c(-c3ccccc3)nn3c2COCC3)nc1 [Example 3] | 14.2% | – | – | 14% | – | – | – |
| CCc1cnc(NC[C@@H]2[C@H](C)CCCN2C(=O)c2c(-c3ccccc3)nn3ccccc23)nc1 [Example 4] | 12.8% | – | – | 85.7% | – | – | – |
| CCc1cnc(NC[C@@H]2[C@H](C)CCCN2C(=O)c2c(-c3ccccc3)nn3c2COCC3)nc1 [Example 5] | 0.4% | 136 nM | 29 nM | 71% | – | – | – |
| C[C@@H]1CCCN(C(=O)c2c(-c3ccccc3)nn3ccccc23)[C@@H]1CNc1ccc(C(F)(F)F)cn1 [Example 6] | 38.5% | 8 nM | 1.7 nM | 87.6% | – | – | – |
| C[C@@H]1CCCN(C(=O)c2c(-c3ccccc3)nn3c2COCC3)[C@@H]1CNc1ccc(C(F)(F)F)cn1 [Example 7] | 2.44% | 9 nM | 2 nM | 80.1% | – | – | – |
| C[C@@H]1CCCN(C(=O)c2c(-c3ccccc3)nc3ccccn23)[C@@H]1CNc1ccc(C(F)(F)F)cn1 [Example 8] | 13.8% | 5 nM | 1 nM | 86.1% | – | – | – |
| CCc1cnc(NC[C@@H]2[C@H](C)CCCN2C(=O)c2c(-c3ccccc3)nc3ccccn23)nc1 [Example 9] | -2.51% | 59 nM | 12 nM | 76.8% | – | – | – |
| O=C(c1c(-c2ccccc2)nn2ccccc12)N1CCC[C@H]1CNc1ccc(C(F)(F)F)cn1 [Example 10] | 43.5% | 3.5 nM | 0.7 nM | 86.9% | – | – | – |
| O=C(c1c(-c2ccccc2)nc2ccccn12)N1CCC[C@H]1CNc1ccc(C(F)(F)F)cn1 [Example 11] | 21.6% | 39 nM | 8 nM | 67.1% | – | – | – |
| O=C(c1c(-c2ccccc2)nc2ccccn12)N1CCC[C@H]1Cn1ccc(-c2ccccc2)n1 [Example 12] | 46.1% | 2 nM | 0.5 nM | 88.9% | – | – | – |
| O=C(c1c(-c2ccccc2)nn2ccccc12)N1CCC[C@H]1Cn1ccc(-c2ccccc2)n1 [Example 13] | 78.5% | – | – | 96.6% | 70 nM | 9 nM | – |
| CCc1cnc(NC[C@@H]2CCCN2C(=O)c2c(-c3ccccc3)nc3ccccn23)nc1 [Example 14] | 18.3% | – | – | 14.8% | – | – | – |
| CCc1cnc(NC[C@@H]2CCCN2C(=O)c2c(-c3ccccc3)nn3ccccc23)nc1 [Example 15] | 37.3% | 178 nM | 37 nM | 54.1% | – | – | – |
| CCc1cnc(OC[C@@H]2CCCN2C(=O)c2c(-c3ccccc3)nn3c2COCC3)nc1 [Example 16] | 7.77% | – | – | 0.59% | – | – | – |
| O=C(c1c(-c2ccccc2)nn2c1COCC2)N1CCC[C@H]1COc1ccc(C(F)(F)F)cn1 [Example 17] | 5.78% | – | – | 45.1% | – | – | – |
| O=C(c1c(-c2ccccc2)nc2ccccn12)N1CCC[C@H]1COc1ccc(C(F)(F)F)cn1 [Example 18] | 29.6% | 293 nM | 62 nM | 70% | – | – | – |
| CCc1cnc(OC[C@@H]2CCCN2C(=O)c2c(-c3ccccc3)nc3ccccn23)nc1 [Example 19] | 11.2% | – | – | -10.8% | – | – | – |
| O=C(c1c(-c2ccccc2)nn2ccccc12)N1CCC[C@H]1COc1ccc(C(F)(F)F)cn1 [Example 20] | 49.6% | 11 nM | 2 nM | 84.9% | – | – | – |
| CCc1cnc(OC[C@@H]2CCCN2C(=O)c2c(-c3ccccc3)nn3ccccc23)nc1 [Example 21] | 26.9% | – | – | 38.8% | – | – | – |
| Orexin A: excitatory hypothalamic neuropeptide, a 33 amino acid peptide; endogenous ligand of OX1R and OX2R (QPLPDCCRQKTCSCRLYELLHGAGNHAAGILTL; Orexin-A; UniProt O43612 34-66, looked up) | – | – | – | – | – | – | about 100 fold |

Source: patent US12275744B2, “Pyrazole and imidazole derivatives, compositions and methods as orexin antagonists” (HAGER BIOSCIENCES, LLC, priority 2019, dated 2025)
